The structures appear in SMILES notation.

What all share (assay type): in vivo, Lewis rats
The test system of data set [1] is adjuvant-induced arthritis (AIA) model. The data set is described as follows: Clinical score analysis in adjuvant-induced arthritis (AIA) model. Details: Clinical score 9th day / Clinical score 13th day / Clinical score 16th day / Clinical score 11th day / Clinical score 15th day / Clinical score 18th day: scale not given here. As to conditions: for Clinical score 9th day / Clinical score 13th day / Clinical score 16th day: Mean ± SD; for Clinical score 11th day / Clinical score 15th day / Clinical score 18th day: Mean ± SEM. The procedure: (§1) Lewis rats (female, five-weeks old) were purchased from Central Lab Animal, Inc. and kept in a controlled environment with a temperature at 22±2° C., a humidity at 44-56% and a light/dark cycle of 12 hours, while being allowed to have a free access to standard diet and water for one week before an examination. Complete Freund's Adjuvant (Chondrex) containing 10 mg/mL of heat killed mycobacteria toxin was fully mixed together, after which […] thereof was taken and subcutaneously injected into each upper tail of the rats to induce arthritis therefrom.
(§2) To administer a drug of compound 374 (SM374) and evaluate an effect thereof, the rats were divided into 11 groups (9, 10 or 11 animals per group) one day before or nine days after inducing arthritis, after which each group was classified according to administered substances (vehicle, compound 374 (SM374) or methotrexate (MTX)) and administration routes (oral administration (P.O.) or intraperitoneal administration (I.P.)) as shown in a following table 13.
(§3) Also, in order to administer a drug of compounds 374, 413, 484, 530 and 652 (SM374, SM413, SM484, SM530 and SM652) and evaluate an effect thereof, the rats were divided into 13 groups (9 or 10 animals per group) eight days after inducing arthritis, and each group was classified according to administered substances (vehicle, SM374, SM413, SM484, SM530, SM652 and MTX) and administration routes (oral or intraperitoneal administration) as shown in a following table 14.
To identify the efficacy of the inventive composition on preventing or treating arthritis in an AIA model, an analysis was made on the clinical scores of rats dosed with a compound 374 (SM 374, once per day) or MTX (once per week or twice per week) from 9th day to 16th day after inducing arthritis.
Particularly, a degree of swelling, erythema, etc., in each joint of the rats were observed, after which clinical scores were calculated according to a scoring system described in a following table 15, such that the clinical scores on four joints were added up to obtain total scores for each rat (Vishwakarma et al., 2013).
To identify the efficacy of the inventive composition on preventing or treating arthritis in an AIA model, an analysis was made on the clinical scores of rats dosed with compounds 374, 413, 484, 530 and 652 (SM374, SM413, SM484, SM530 and SM652, once per day) or MIX (once per week) from 8th day to 18th day after inducing arthritis.

Data set [2] can be described thus: Analysis of body weights in AIA model. As to conditions: for Body weight (g) 9th day / Body weight (g) 13th day / Body weight (g) 16th day: Mean ± SD; for Body weight (g) 8th day / Body weight (g) 11th day / Body weight (g) 15th day / Body weight (g) 18th day: Table 19 study, compound 10 mg/kg once per day P.O. The procedure: as §1, §2, §3
An analysis was made on the body weight of rats dosed with compound 374 (SM 374, once per day) or MIX (once per week or twice per week) from 9th day to 16th day after inducing AIA. […]

A further data set deals with anti-CCP IgG. The data set is described as follows: Analysis of anti-CCP IgG in plasma in AIA model (QUANTA Lite CCP3 IgG ELISA). Particulars: Mean ± SD. On the procedure: as §1, §2
An effect of compound 374 (SM374) and MTX on preventing or treating arthritis according to administration thereof in combination was evaluated based on analysis of anti-CCP IgG, known as a diagnosis marker for rheumatoid arthritis.
Particularly, blood was collected from each jugular vein of rats dosed with compound 374 (SM374, once per day) and MTX (once or twice per week) from 9th day to 16th day after inducing AIA, after which plasma was isolated therefrom, such that anti-CCP IgG was measured with QUANTA Lite®CCP3 (cyclic citrullinated peptide 3) IgG ELISA kit (INOVA Diagnostics Inc., U.S., catalog no. 704535) according to a protocol offered by a manufacturer thereof, wherein the results thereof are shown in FIG. 5 and Table 20.

The mark [3] stands for this setting: SM374 0.1 mg/kg once per day P.O.
The mark [4] stands for this setting: SM374 0.5 mg/kg once per day P.O.
Where [5] appears, read: SM374 1 mg/kg once per day P.O.
The mark [6] stands for this setting: SM374 10 mg/kg once per day P.O.
The mark [7] stands for this setting: Table 17 study, compound 10 mg/kg once per day P.O., 18th day vs vehicle.
[8] abbreviates: Table 17 study, compound 10 mg/kg once per day P.O.

As to `O=C(NO)c1ccc(CN(C(=O)N2CCOCC2)c2cccc(C(F)(F)F)c2)cc1` [SM374, N-(4-(hydroxycarbamoyl)benzyl)-N-(3-(trifluoromethyl)phenyl)morpholine-4-carboxamide], the “Rate of reduction in clinical scores (%)” value in data set [1] (SM374 0.1 mg/kg once per day P.O., 16th day vs vehicle) is 0%; in data set [1] (SM374 0.5 mg/kg once per day P.O., 16th day vs vehicle), 2.9%; in data set [1] (SM374 1 mg/kg once per day P.O., 16th day vs vehicle), 14.5%; in data set [1] (SM374 10 mg/kg once per day P.O., 16th day vs vehicle) it was −2.9%; in data set [1] (setting [7]), 21.3%. Moreover, the “Clinical score 9th day” value in data set [1] (setting [3]), in data set [1] (setting [4]), in data set [1] (setting [5]) and in data set [1] (setting [6]) was 0.0 ± 0.0 in each case. The “Clinical score 13th day” value in data set [1] (setting [3]) is given as 4.3 ± 2.9; in data set [1] (setting [4]), 2.6 ± 2.3; in data set [1] (setting [5]) it was 2.7 ± 3.0; in data set [1] (setting [6]) it was 2.9 ± 2.9. Also, the “Clinical score 16th day” value in data set [1] (setting [3]) is reported as 6.9 ± 3.0; in data set [1] (setting [4]), 6.7 ± 4.2; in data set [1] (setting [5]) it was 5.9 ± 4.4; in data set [1] (setting [6]) it was 7.1 ± 3.1. The “Clinical score 11th day” value in data set [1] (setting [8]) stood at 0.0 ± 0.0. Also, the “Clinical score 15th day” value in data set [1] (setting [8]) came to 1.6 ± 0.7. In addition, the “Clinical score 18th day” value in data set [1] (setting [8]) was determined as 4.8 ± 1.4. Further, the “Body weight (g) 9th day” value in data set [2] (setting [3]) stood at 157.3 ± 10.1 g; in data set [2] (setting [4]) it was 157.3 ± 10.0 g; in data set [2] (setting [5]), 157.3 ± 10.7 g; in data set [2] (setting [6]) it was 157.3 ± 9.9 g. The “Body weight (g) 13th day” value is listed as 151.3 ± 13.3 g in data set [2] (setting [3]), 153.1 ± 10.8 g in data set [2] (setting [4]), 156.9 ± 8.9 g in data set [2] (setting [5]) and 151.6 ± 12.2 g in data set [2] (setting [6]). Moreover, the “Body weight (g) 16th day” value in data set [2] (setting [3]) is 144.2 ± 10.5 g; in data set [2] (setting [4]), 148.6 ± 9.5 g; in data set [2] (setting [5]), 151.6 ± 11.5 g; in data set [2] (setting [6]), 147.6 ± 9.3 g. In data set [2], the “Body weight (g) 8th day” value is reported as 151.3 ± 2.1 g. Besides, the “Body weight (g) 11th day” value in data set [2] was 153.9 ± 1.5 g. Further, in data set [2], the “Body weight (g) 15th day” value is on record as 159.2 ± 1.5 g. Moreover, the “Body weight (g) 18th day” value in data set [2] turned out to be 157.6 ± 3.1 g. The “Anti-CCP IgG (RU)” value worked out at 216.2 ± 30.0 RU in the data set on anti-CCP IgG (SM374 0.5 mg/kg once per day), 221.8 ± 28.0 RU with anti-CCP IgG (SM374 1 mg/kg once per day) and 206.6 ± 32.9 RU in the data set with anti-CCP IgG (SM374 10 mg/kg once per day).
In the case of `O=C(NO)c1ccc(CN(C(=O)N2CCCOCC2)c2cccc(F)c2)cc1` [SM652, N-(3-fluorophenyl)-N-(4-(hydroxycarbamoyl)benzyl)-1,4-oxazepane-4-carboxamide], the “Rate of reduction in clinical scores (%)” value in data set [1] (setting [7]) amounted to 19.7%. In data set [1] (setting [8]), the “Clinical score 11th day” value is listed as 0.0 ± 0.0, the “Clinical score 15th day” value was 1.4 ± 0.9 and the “Clinical score 18th day” value amounted to 4.9 ± 1.6. In addition, in data set [2], the “Body weight (g) 8th day” value was determined as 152.8 ± 2.4 g, the “Body weight (g) 11th day” value was found to be 157.6 ± 1.9 g, the “Body weight (g) 15th day” value came out at 158.8 ± 1.6 g and the “Body weight (g) 18th day” value is 156.8 ± 3.9 g.
As to `COc1cccc(N(Cc2ccc(C(=O)NO)cc2)C(=O)N2CCOCC2)c1` [SM484, N-(4-(hydroxycarbamoyl)benzyl)-N-(3-methoxyphenyl)morpholine-4-carboxamide], in data set [1] (setting [7]), the “Rate of reduction in clinical scores (%)” value is given as 19.7%. Further, in data set [1] (setting [8]), the “Clinical score 11th day” value was determined as 0.0 ± 0.0, the “Clinical score 15th day” value was 2.9 ± 1.3 and the “Clinical score 18th day” value was determined as 4.9 ± 1.7. Further, in data set [2], the “Body weight (g) 8th day” value stood at 151.4 ± 2.5 g, the “Body weight (g) 11th day” value came out at 154.7 ± 2.1 g, the “Body weight (g) 15th day” value stood at 160.7 ± 3.3 g and the “Body weight (g) 18th day” value was 158.3 ± 4.6 g.
On to `O=C(NO)c1ccc(CN(C(=O)N2CCOCC2)c2cccc(F)c2)cc1` [SM530], for which, in data set [1] (setting [7]), the “Rate of reduction in clinical scores (%)” value worked out at 31.1%. In addition, in data set [1] (setting [8]), the “Clinical score 11th day” value is recorded as 0.0 ± 0.0, the “Clinical score 15th day” value came to 1.2 ± 0.5 and the “Clinical score 18th day” value was determined as 4.2 ± 1.6. In data set [2], the “Body weight (g) 8th day” value worked out at 151.2 ± 2.6 g, the “Body weight (g) 11th day” value is listed as 153.0 ± 2.1 g, the “Body weight (g) 15th day” value was 161.1 ± 2.1 g and the “Body weight (g) 18th day” value was 159.2 ± 4.5 g.
For `O=C(NO)c1ccc(CN(C(=O)N2CCOCC2)c2ccc(F)cc2F)cc1` [SM413, N-(2,4-difluorophenyl)-N-(4-(hydroxycarbamoyl)benzyl)morpholine-4-carboxamide], the “Rate of reduction in clinical scores (%)” value in data set [1] (setting [7]) is −3.3%. For the same molecule, in data set [1] (setting [8]), the “Clinical score 11th day” value turned out to be 0.0 ± 0.0, the “Clinical score 15th day” value turned out to be 3.0 ± 1.4 and the “Clinical score 18th day” value was determined as 6.3 ± 1.4. Further, in data set [2], the “Body weight (g) 8th day” value was 151.3 ± 2.9 g, the “Body weight (g) 11th day” value is recorded as 151.4 ± 3.9 g, the “Body weight (g) 15th day” value was found to be 157.4 ± 4.2 g and the “Body weight (g) 18th day” value worked out at 155.2 ± 4.5 g.
